Experimental findings from US20240335462A1, “SULFUR/PHOSPHORUS-CONTAINING ARYL COMPOUND AND APPLICATION THEREOF” (MEDSHINE DISCOVERY INC., priority 2021, published 2024) are described below.

In the assay the test system is IL-12/IL-18-induced IFN-γ secretion by mouse immune cells. Put plainly: IL-12/IL-18-induced IFN-γ secretion in mice (serum ELISA). The assay is classed as in vivo, C57BL/6J mice. As for the experimental part: The purpose of this experiment was to evaluate the inhibitory effect of the compound on IL-12/IL-18-induced IFN-γ secretion by immune cells in mice. The IFN-γ protein level in serum samples of mice treated with the compound was detected using the enzyme-linked immunosorbent assay (ELISA) method.
This experiment was conducted twice.
The compounds were all prepared into a clear solution with 10% DMSO+10% solutol+80% (10% HP-β-CD) as a solvent for PO (oral gavage) administration. The frequency of administration was once daily (QD).
• a) According to the grouping, the mice were administered by gavage (P0) with either the compound formulation or solvent control. • b) One hour later, each mouse received an intraperitoneal injection of IL-12 (0.01 μg per mouse) or PBS buffer. • c) One hour after IL-12 administration, each mouse received an intraperitoneal injection of IL-18 (1 μg per mouse) or PBS buffer. • d) Blood was collected three hours after IL-18 administration, and serum was separated.
• a) Prior to use, all reagents were mixed thoroughly to avoid foaming. • b) The number of strips required was determined based on the number of experimental wells (blanks and standards). Duplicate tests were performed for samples (including standards) and blanks. • c) Sample addition: 100 μL/well of the diluted Cytokine standard was added to the standard wells, 100 μL/well of the sample was added to the sample wells, and 100 μL/well of Dilution buffer R (1×) was added to the blank control wells. • d) Detection antibody addition: 50 μL/well of Biotinylated antibody working solution was added. After mixing, the plate was covered with a sealing film and incubated at 37° C. for 90 minutes. • e) Plate washing: The liquid was discarded from the wells, then 300 μL/well of 1× Washing buffer working solution was added, and allowed to stand for 1 minute before the liquid was discarded from the wells. […]
The plate was covered with a sealing film and incubated at 37° C. for 30 minutes. • g) Plate washing: Step 5 was repeated. • h) Color development: 100 μL/well of TMB was added, then the plate was incubated at 37° C. in the dark for 5 to 30 minutes, and the reaction was terminated depending on the intensity of the color (dark blue) in the well. […] Dual wavelengths were recommended for reading the plate, specifically measuring at a measurement wavelength of 450 nm and a reference wavelength of 610 to 630 nm simultaneously.
The expression level of each sample was calculated based on the standard curve, and statistical analysis of the results for each group was performed, including mean and standard error of the mean (SEM). […] All data were analyzed using GraphPad Prism 6.02.
(An ELISA detects its analyte on a solid surface through an enzyme-linked reagent.)

The mark [1] stands for this setting: single PO administration 3 mg/kg.
[2] abbreviates: single PO administration 10 mg/kg.

For `CNC(=O)c1cnc(NC(=O)C2CC2)cc1Nc1cccc(-c2ccc(S(=O)(=O)C(C)C)cn2)c1OC` [WX-020], the “Serum IFN-γ inhibition rate (%)” value came to 40% under setting [1] and 86% under setting [2].
Consider `CNC(=O)c1nnc(NC(=O)C2CC2)cc1Nc1cccc(-c2ncc(S(=N)(=O)C(C)C)cn2)c1OC` (single isomer, unassigned) [WX-011A], for which the “Serum IFN-γ inhibition rate (%)” value is, setting by setting: under setting [1], 64%; under setting [2], 96%.
